Where two headings read alike, the source gives them in different places.
Assays:
[1] = target: T1, pUL15N (N-terminus domain of DPV pUL15) (anatid alphaherpesvirus 1, UniProt C6ZD26); conditions: 1 mM ATP, 2 µM protein, 2 mM MgCl2, 50 mM NaCl, pH 7.5, 37 °C
T1 construct: gene UL15

[2] = target: T2, DPV pUL15FL (full-length pUL15) (anatid alphaherpesvirus 1, UniProt C6ZD26); type: biochemical
T2 construct: gene UL15

Row | Compound | malachite green phosphate release [1] | malachite green phosphate release ([2]; 1 mM ATP, 2 mM MgCl2, 50 mM NaCl, pH 7.5, 37 °C) | malachite green phosphate release [2]
1 | Nc1ncnc2c1ncn2[C@@H]1O[C@H](COP(=O)(O)OP(=O)(O)OP(=O)(O)O)[C@@H](O)[C@H]1O [ATP] | the pUL15N exhibited ATPase activity like pUL15FL, whereas pUL15C did not | DPV pUL15FL hydrolyzes both ATP and ADP | 
2 | Nc1ncnc2c1ncn2[C@@H]1O[C@H](COP(=O)(O)OP(=O)(O)O)[C@@H](O)[C@H]1O [ADP] |  |  | DPV pUL15FL hydrolyzes both ATP and ADP

Source: publication PMC12567909 (Veterinary Sciences, 2025)
